From US20230172946A1, “In-situ Gel Forming Ophthalmic Formulations Containing Difluprednate” (IVIEW Therapeutics, Inc., priority 2019, published 2023)

Legend:
[1] = Solubility of difluprednate with different surfactants/solubilizers; assay type: physicochemical
Protocol: To improve the solubility of difluprednate, different surfactants/solubilizers were investigated to discover suitable solubilizers. Different surfactants/solubilizers such as Poloxamer 188, Poloxamer 407, polysorbate 80, PEG 40 Caster Oil, PEG 60 Caster Oil, PEG 40 Hydrogenated Castor Oil, Polyoxyl 40 Stearate and Soluplus was dissolved in water with different concentrations. Difluprednate was added into the surfactant solutions with the final difluprednate concentration of 0.05%. The solubility of difluprednate was measured. […] Soluplus is a polyethylene glycol, polyvinyl acetate and polyvinylcaprolactame-based graft copolymer (PVAc-PVCap-PEG). It can form nanomicelles in water or other aqueous solutions, and solubilize poorly soluble difluprednate.

[2] = cited from earlier work

solubility of difluprednate ([1]; 5% Polyoxyethylene Castor Oil (RL-40)): > 98%
Solubility % ([1]; Benzyl Benzoate 2% in water, difluprednate 0.05%): 0.37%
Solubility % ([1]; Glyceryl Tricaprylate 0.2% in water, difluprednate 0.05%): 0.84%
Solubility % ([1]; Hypromellose 0.5% in water, difluprednate 0.05%): 17.6%
Solubility % ([1]; Poloxamer188 0.1% in water, difluprednate 0.05%): 3.59%
Solubility % ([1]; Poloxamer 407 0.2% in water, difluprednate 0.05%): 2.20%
Solubility % ([1]; Polyoxyethylene (23) Cetyl Ether 0.2% in water, difluprednate 0.05%): 7.87%
Solubility % ([1]; Polyoxyethylene (23) Cetyl Ether 0.45% in water, difluprednate 0.05%): 15.41%
Solubility % ([1]; Polyoxyethylene (23) Cetyl Ether 1.0% in water, difluprednate 0.05%): 33.70%
Solubility % ([1]; Polyoxyethylene (40) Monostearate 0.5% in water, difluprednate 0.05%): 42.0%
Solubility % ([1]; Polyoxyethylene (40) Stearate 7.0% in water, difluprednate 0.05%): 5.1%
Solubility % ([1]; Polyoxyethylene (60) Castor Oil 5.0% in water, difluprednate 0.05%): 95.3%
solubility of difluprednate ([1]; Polyoxyethylene (60) Castor Oil, at least 4 or 5% needed): > 95%
Solubility % ([1]; Polyoxyethylene Castor Oil (EL) 5.0% in water, difluprednate 0.05%): 93.5%
Solubility % ([1]; Polyoxyethylene Castor Oil (EL-35) 5.0% in water, difluprednate 0.05% (second entry, r27)): 96.3%
solubility of difluprednate ([1]; Polyoxyethylene Castor Oil (EL-35), at least 4 or 5% needed): > 95%
Solubility % ([1]; Polyoxyethylene Castor Oil (EL-40) 5.0% in water, difluprednate 0.05%): >98.0%
Solubility % ([1]; Polyoxyethylene Hydrogenated Castor Oil (RH-40) 0.53% in water, difluprednate 0.05%): 9.7%
Solubility % ([1]; Polyoxyethylene Hydrogenated Castor Oil (RH-40) 1.0% in water, difluprednate 0.05%): 18.6%
Solubility % ([1]; Polyoxyethylene Hydrogenated Castor Oil (RH-40) 2.0% in water, difluprednate 0.05%): 50.0%
Solubility % ([1]; Polyoxyethylene Hydrogenated Castor Oil (RH-40) 3.0% in water, difluprednate 0.05%): 73.1%
Solubility % ([1]; Polyoxyethylene Hydrogenated Castor Oil (RH-40) 4.0% in water, difluprednate 0.05%): 88.1%
Solubility % ([1]; Polyoxyethylene Hydrogenated Castor Oil (RH-40) 5.0% in water, difluprednate 0.05%): 99.5%
Solubility % ([1]; Polyoxyethylene castor oil (EL-35) 5.0% in water, difluprednate 0.05% (first entry, r11)): 82.9%
Solubility % ([1]; Polyoxyl 20 Cetostearyl Ether 1.0% in water, difluprednate 0.05%): 37.2%
Solubility % ([1]; Polyoxyl 20 Cetostearyl Ether 2.0% in water, difluprednate 0.05%): 74.7%
Solubility % ([1]; Polyoxyl 20 Cetostearyl Ether 3.0% in water, difluprednate 0.05%): 79.9%
Solubility % ([1]; Polyoxyl 20 Cetostearyl Ether 4.0% in water, difluprednate 0.05%): 96.9%
Solubility % ([1]; Polyoxyl 20 Cetostearyl Ether 5.0% in water, difluprednate 0.05%): 96.9%
Solubility % ([1]; Polysorbate 80 0.05% in water, difluprednate 0.05%): 1.75%
Solubility % ([1]; Soluplus 0.9% in water, difluprednate 0.05%): 101.9%
Solubility % ([1]; Soluplus 1.2% in water, difluprednate 0.05%): 102.1%
Solubility % ([1]; Soluplus 1.5% in water, difluprednate 0.05%): 102.1%
Solubility % ([1]; Sucrose Fatty Acid Ester 0.2% in water, difluprednate 0.05%): 2.01%
Solubility % ([1]; Sucrose Fatty Acid Ester 1.0% in water, difluprednate 0.05%): 8.36%
Solubility % ([1]; Vitamin E Polyethylene Glycol Succinate 0.5% in water, difluprednate 0.05%): 25.3%
Compound: CCCC(=O)O[C@]1(C(=O)COC(C)=O)CC[C@H]2[C@@H]3C[C@H](F)C4=CC(=O)C=C[C@]4(C)[C@@]3(F)[C@@H](O)C[C@@]21C [Difluprednate]
solubility in water [2]: practically insoluble in water
